Measurements published in ChEMBL document CHEMBL1201862, “PubChem BioAssay data set” (2004).
The source made the active and inactive calls.

Legend:
BHK-21 = experiment: viability loss in BHK-21 cells – cell-based, plate reader, cherry-pick samples, cytotoxicity control, dose response (AID 687030); type: functional; conditions: Mesocricetus auratus
A549 = experiment: viability loss in A549 cells – cell-based, plate reader, cherry-pick samples, cytotoxicity control, dose response (AID 687028); type: functional; conditions: Homo sapiens
Vero = experiment: viability loss in Vero cells – cell-based, plate reader, cherry-pick samples, cytotoxicity control, dose response (AID 687020); type: functional; conditions: Chlorocebus sabaeus
[1] = molecular target: 72 kDa type IV collagenase (Homo sapiens, UniProt P08253); experiment: Dose Response validation of uHTS RPN11 inhibitor hits using a MMP-2 Fluorescence assay.; type: functional
[2] = cytotoxicity toward MDA-MB-231 breast cancer cells – cell-based, CellTiter-Glo luminescence, cherry-pick, cytotoxicity control for RAD54 inhibitor project, dose response (AID 651692); type: functional
Prothrombin = Prothrombin (Bos taurus, UniProt P00735); experiment: thrombin protease inhibitors – biochemical, fluorescence polarization, uHTS hits, dose response (AID 602369); type: functional
[3] = molecular target: T1, DNA repair and recombination protein RAD54-like (Homo sapiens, UniProt Q92698); experiment: RAD54 Holliday junction migration blockers – biochemical, fluorescence, cherry-picked samples, dose series, confirmation (AID 651657); type: functional
T1 sequence (Q92698 whole entry): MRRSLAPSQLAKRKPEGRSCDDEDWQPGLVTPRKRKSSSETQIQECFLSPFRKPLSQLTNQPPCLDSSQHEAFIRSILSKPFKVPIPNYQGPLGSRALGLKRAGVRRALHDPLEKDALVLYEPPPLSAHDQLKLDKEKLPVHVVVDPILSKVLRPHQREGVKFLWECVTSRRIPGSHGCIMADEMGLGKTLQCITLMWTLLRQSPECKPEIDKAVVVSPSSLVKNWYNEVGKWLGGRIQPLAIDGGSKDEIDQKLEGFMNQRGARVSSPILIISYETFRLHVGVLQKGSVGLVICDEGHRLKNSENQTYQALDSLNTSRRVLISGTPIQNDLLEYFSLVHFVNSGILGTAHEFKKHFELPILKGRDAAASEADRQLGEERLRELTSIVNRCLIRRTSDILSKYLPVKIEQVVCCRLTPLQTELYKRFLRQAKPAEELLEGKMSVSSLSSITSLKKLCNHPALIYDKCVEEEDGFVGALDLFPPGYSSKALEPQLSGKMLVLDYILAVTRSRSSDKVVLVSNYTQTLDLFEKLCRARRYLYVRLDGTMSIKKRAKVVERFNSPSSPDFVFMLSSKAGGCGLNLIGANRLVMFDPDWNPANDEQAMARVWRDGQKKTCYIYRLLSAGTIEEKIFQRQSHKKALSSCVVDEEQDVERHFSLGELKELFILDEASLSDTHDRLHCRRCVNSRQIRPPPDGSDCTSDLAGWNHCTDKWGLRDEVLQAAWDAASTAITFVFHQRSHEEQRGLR

[4] = molecular target: 26S proteasome non-ATPase regulatory subunit 14 (Homo sapiens, UniProt O00487); experiment: inhibition of proteasome subunit RPN11 – biochemical, fluorescence polarization, uHTS hits, confirmation (AID 602368); type: functional
[5] = molecular target: T2, DNA repair protein RAD52 homolog (Homo sapiens, UniProt P43351); type: functional, biochemical
T2 sequence (P43351 whole entry): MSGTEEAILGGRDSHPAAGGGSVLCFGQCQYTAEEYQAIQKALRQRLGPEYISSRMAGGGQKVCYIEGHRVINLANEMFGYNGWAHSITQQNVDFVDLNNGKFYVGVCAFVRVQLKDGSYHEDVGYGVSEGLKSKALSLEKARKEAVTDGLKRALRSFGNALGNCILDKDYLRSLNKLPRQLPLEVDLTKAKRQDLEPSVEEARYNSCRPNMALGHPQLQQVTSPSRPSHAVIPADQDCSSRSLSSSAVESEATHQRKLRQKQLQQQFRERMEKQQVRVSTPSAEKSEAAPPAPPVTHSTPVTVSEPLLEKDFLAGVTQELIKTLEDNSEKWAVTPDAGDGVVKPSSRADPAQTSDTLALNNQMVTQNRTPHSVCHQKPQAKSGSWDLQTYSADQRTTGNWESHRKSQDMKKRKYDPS

[6] = molecular target: Tyrosine-protein phosphatase non-receptor type 5 (Homo sapiens, UniProt P54829); experiment: PTPN5 enzyme inhibition – biochemical, fluorescence intensity, uHTS hits, confirmation (AID 602372); type: functional; conditions: read-out: IC50_Mean
[7] = molecular target: T3, Tyrosine-protein phosphatase non-receptor type 22 (Homo sapiens, UniProt Q9Y2R2); experiment: lymphoid phosphatase LYP inhibitors – biochemical, selectivity assay for STEP inhibitor project, dose response (AID 624241); type: functional
T3 sequence (Q9Y2R2 whole entry): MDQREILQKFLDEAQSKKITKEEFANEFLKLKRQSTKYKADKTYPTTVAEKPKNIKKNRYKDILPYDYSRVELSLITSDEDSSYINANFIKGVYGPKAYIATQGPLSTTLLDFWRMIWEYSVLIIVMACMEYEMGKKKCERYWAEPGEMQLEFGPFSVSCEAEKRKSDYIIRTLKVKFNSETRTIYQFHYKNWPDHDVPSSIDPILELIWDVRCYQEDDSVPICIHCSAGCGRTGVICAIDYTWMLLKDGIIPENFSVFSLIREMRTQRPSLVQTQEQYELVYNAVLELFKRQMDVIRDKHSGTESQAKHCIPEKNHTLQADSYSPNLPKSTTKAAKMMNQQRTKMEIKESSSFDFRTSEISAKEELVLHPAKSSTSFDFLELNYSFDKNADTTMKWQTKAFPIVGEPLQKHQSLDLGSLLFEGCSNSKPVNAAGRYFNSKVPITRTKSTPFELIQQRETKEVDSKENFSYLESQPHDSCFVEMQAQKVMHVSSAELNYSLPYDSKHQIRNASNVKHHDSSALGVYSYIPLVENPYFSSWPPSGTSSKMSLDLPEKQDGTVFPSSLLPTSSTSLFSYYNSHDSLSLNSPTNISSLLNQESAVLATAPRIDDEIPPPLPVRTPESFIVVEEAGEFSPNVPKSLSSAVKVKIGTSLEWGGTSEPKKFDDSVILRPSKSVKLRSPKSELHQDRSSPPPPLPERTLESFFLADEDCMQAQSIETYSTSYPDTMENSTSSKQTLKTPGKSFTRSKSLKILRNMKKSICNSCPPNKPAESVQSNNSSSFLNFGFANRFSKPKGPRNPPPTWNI

[8] = molecular target: T4, Low molecular weight phosphotyrosine protein phosphatase (Homo sapiens, UniProt P24666); type: functional; conditions: read-out: IC50_Mean
T4 sequence (P24666 whole entry): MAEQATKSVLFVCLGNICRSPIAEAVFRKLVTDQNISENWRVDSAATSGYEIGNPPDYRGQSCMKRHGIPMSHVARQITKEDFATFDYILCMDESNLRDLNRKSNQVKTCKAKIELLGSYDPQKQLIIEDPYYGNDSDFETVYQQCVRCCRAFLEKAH

[9] = molecular target: T3, Tyrosine-protein phosphatase non-receptor type 22; experiment: PTPN22 enzyme inhibitors – biochemical, fluorescence, LYP catalytic domain, selectivity assay for LMPTP inhibitor project, dose response (AID 652006); type: functional; conditions: read-out: IC50_Mean
[10] = molecular target: Dual specificity protein phosphatase 3 (Homo sapiens, UniProt P51452); experiment: VHR phosphatase inhibition, dose response, selectivity assay for STEP inhibitor project, biochemical (AID 602374); type: functional; conditions: read-out: IC50_Mean
[11] = molecular target: T4, Low molecular weight phosphotyrosine protein phosphatase; type: functional; conditions: read-out: IC50_Mean; remark: listed apart in the source
[12] = molecular target: Tyrosine-protein phosphatase non-receptor type 11 (Homo sapiens, UniProt Q06124); experiment: PTPN11 enzyme inhibitors – biochemical, selectivity assay for STEP inhibitor project, dose response (AID 602367); type: functional; conditions: read-out: IC50_Mean
Protein Wnt-3a = Protein Wnt-3a (Mus musculus, UniProt P27467); experiment: SAR analysis of small molecule antagonists of Gli-SUFU in a Wnt3a luminescent reporter assay.; type: functional
[13] = anti-trypanosomal activity in BESM host cells – imaging, CA-I/72 strain, bovine embryo skeletal muscle, dry powder, dose response (AID 651885); type: functional, cell-based

Chain of Tyrosine-protein phosphatase non-receptor type 5 (P54829 whole entry): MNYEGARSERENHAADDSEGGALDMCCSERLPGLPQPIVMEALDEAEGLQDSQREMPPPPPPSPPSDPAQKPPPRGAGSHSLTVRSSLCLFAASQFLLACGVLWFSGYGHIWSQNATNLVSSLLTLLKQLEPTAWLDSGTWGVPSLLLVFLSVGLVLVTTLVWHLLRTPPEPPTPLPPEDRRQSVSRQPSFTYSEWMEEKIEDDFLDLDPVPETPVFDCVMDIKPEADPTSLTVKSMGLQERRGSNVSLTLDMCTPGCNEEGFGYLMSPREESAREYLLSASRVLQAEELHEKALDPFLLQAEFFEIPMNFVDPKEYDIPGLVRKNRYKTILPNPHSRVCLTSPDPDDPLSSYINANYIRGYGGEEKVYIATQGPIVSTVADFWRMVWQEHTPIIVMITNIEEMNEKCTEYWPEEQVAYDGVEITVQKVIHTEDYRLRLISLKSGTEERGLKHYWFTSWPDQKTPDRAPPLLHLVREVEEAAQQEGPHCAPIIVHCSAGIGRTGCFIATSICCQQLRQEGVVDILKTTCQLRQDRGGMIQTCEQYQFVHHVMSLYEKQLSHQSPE
Chain of Tyrosine-protein phosphatase non-receptor type 11 (Q06124 whole entry): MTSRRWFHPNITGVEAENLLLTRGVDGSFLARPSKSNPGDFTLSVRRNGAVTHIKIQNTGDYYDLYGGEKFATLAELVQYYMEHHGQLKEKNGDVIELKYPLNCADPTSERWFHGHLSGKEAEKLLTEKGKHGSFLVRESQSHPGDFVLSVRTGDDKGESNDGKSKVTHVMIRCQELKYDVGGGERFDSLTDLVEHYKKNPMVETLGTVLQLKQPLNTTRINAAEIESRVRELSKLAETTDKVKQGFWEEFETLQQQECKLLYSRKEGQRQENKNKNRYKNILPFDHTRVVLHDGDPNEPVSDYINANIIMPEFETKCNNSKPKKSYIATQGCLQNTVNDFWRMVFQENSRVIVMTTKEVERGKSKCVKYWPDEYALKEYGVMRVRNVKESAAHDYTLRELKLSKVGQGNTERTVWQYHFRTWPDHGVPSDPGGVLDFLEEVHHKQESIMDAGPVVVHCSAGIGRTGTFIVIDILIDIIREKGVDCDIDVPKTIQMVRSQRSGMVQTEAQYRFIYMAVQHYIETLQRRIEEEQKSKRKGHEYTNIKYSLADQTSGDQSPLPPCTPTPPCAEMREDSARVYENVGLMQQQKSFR
Chain of Protein Wnt-3a (P27467 whole entry): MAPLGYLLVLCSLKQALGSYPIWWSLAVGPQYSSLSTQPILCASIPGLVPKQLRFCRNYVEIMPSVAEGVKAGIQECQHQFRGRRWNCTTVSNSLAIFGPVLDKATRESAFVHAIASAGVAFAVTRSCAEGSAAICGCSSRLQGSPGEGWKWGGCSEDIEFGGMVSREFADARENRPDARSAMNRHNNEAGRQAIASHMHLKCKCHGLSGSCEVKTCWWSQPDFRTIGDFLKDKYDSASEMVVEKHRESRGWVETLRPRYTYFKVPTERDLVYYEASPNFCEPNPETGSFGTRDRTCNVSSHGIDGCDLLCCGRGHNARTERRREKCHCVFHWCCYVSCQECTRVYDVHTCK
Chain of 72 kDa type IV collagenase (P08253 whole entry): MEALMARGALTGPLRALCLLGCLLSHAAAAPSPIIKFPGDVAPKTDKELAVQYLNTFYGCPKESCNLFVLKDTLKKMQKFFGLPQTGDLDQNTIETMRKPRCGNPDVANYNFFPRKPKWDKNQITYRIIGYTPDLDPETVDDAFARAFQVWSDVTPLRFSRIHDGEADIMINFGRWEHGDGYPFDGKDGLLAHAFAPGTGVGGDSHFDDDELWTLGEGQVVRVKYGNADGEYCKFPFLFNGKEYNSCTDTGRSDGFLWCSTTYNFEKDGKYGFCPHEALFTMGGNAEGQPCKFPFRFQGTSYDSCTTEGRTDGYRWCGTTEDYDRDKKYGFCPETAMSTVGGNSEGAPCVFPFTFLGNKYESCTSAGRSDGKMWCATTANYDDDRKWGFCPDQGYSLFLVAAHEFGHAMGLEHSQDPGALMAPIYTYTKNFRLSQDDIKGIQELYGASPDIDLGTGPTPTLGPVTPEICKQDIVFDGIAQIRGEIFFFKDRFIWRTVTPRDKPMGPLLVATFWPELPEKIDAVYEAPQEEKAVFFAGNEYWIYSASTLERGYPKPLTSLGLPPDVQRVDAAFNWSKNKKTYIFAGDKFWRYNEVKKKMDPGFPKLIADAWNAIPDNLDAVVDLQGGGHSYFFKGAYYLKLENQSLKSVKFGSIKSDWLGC
Chain of Dual specificity protein phosphatase 3 (P51452 whole entry): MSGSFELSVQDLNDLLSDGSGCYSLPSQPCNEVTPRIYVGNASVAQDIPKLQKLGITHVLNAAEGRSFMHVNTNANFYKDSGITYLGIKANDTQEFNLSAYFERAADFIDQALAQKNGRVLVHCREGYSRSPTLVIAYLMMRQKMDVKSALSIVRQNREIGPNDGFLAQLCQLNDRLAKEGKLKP
Chain of 26S proteasome non-ATPase regulatory subunit 14 (O00487 whole entry): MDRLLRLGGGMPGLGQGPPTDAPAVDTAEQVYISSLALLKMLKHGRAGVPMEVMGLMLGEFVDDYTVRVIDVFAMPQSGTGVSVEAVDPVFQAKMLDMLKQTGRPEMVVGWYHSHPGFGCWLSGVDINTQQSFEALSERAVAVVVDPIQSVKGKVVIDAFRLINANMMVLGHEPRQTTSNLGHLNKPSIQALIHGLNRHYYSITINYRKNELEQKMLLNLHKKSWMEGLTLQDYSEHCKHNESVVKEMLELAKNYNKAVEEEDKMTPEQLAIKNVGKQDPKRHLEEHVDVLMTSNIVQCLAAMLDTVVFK

COc1ccccc1-c1nnc(S)n1-c1ccccc1
IC50 (cells): > 138 µM (inactive)

N#Cc1c(Nc2ccccc2)[n+]([O-])c2ccc(Cl)cc2[n+]1[O-]
AC50 (BHK-21): 38.5 µM (active)
AC50 (A549): 20.7 µM (active)
AC50 (Vero): 22.5 µM (active)

COC(=O)c1c(NC(=O)c2ccc(S(=O)(=O)N3CC(C)OC(C)C3)cc2)sc2c1CCN(C)C2 (centres undefined)
IC50 [1]: > 100 µM (inactive)
AC50 [2]: 24.6 µM (active)
IC50 (Prothrombin): 37.4 µM (active)
AC50 [3]: 55.4 µM (active)
IC50 [4]: 29.5 µM (active)
AC50 [5]: 11.8 µM (active)

O=C(N/N=C/c1ccc(Br)s1)c1cccc([N+](=O)[O-])c1
IC50 [6]: 7.95 µM (active)
IC50 [7]: 64.9 µM (inactive)
IC50 [8]: 9.56 µM (active)
IC50 [9]: 18.2 µM (active)
IC50 [10]: 3.4 µM (active)
IC50 [11]: 9.2 µM (active)
IC50 [12]: 2.15 µM (active)

CC1CCN(c2cc(NC(=O)c3ccccc3)ncn2)CC1
IC50 (Protein Wnt-3a): > 21.8 µM (inactive)

CC(C)N1C[C@H](C)[C@@H](CN(C)C(=O)OC(C)(C)C)Oc2c(NC(=O)c3ccccn3)cccc2C1=O
IC50 [13]: 10.3 µM (inconclusive)
